Measured values from patent US6677277B1, “Substituted sulphonyl amino(thio)carbonyl compounds and their use as herbicides” (Bayer Aktiengesellschaft, priority 1996, dated 2004).

Assays:
Assay type in all cases: in vivo
weeds [1] = experiment: Post-emergence test; settings: cf. Tables B-1 to B-4
Experimental: (§1) Post-emergence Test Solvent: 5 parts by weight of acetone Emulsifier: 1 part by weight of alkylaryl polyglycol ether To produce a suitable preparation of active compound, 1 part by weight of active compound is mixed with the stated amount of solvent, the stated amount of emulsifier is added and the concentrate is diluted with water to the desired concentration. Test plants which have a height of 5-15 cm are sprayed with the preparation of the active compound in such a way as to apply the particular amounts of active compound desired per unit area. The concentration of the spray liquor is chosen so that the particular amounts of active compound desired are applied in 1000 l of water/ha. After three weeks, the degree of damage to the plants is rated in % damage in comparison to the development of the untreated control. The figures denote: [table]

Amaranthus [2] = experiment: Pre-emergence test/greenhouse; settings: after three weeks
Experimental: (§2) Pre-emergence Test Solvent: 5 parts by weight of acetone Emulsifier: 1 part by weight of alkylaryl polyglycol ether To produce a suitable preparation of active compound, 1 part by weight of active compound is mixed with the stated amount of solvent, the stated amount of emulsifier is added and the concentrate is diluted with water to the desired concentration. Seeds of the test plants are sown in normal soil. After about 24 hours, the soil is sprayed with the preparation of the active compound in such a way as to apply the particular amounts of active compound desired per unit area The concentration of the spray liquor is chosen so that the particular amounts of active compound desired are applied in 1000 l of water/ha. After three weeks, the degree of damage to the plants is rated in % damage in comparison to the development of the untreated control. The figures denote: [table]

Lolium [3] = experiment: Pre-emergence test/greenhouse; settings: after three weeks
Experimental: as §2

Maize = experiment: Pre-emergence test/greenhouse; settings: after three weeks
Experimental: as §2

Alopecurus [4] = experiment: Pre-emergence test/greenhouse; settings: after three weeks
Experimental: as §2

Chenopodium = experiment: Pre-emergence test/greenhouse; settings: after three weeks
Experimental: as §2

Matricaria [5] = experiment: Pre-emergence test/greenhouse; settings: after three weeks
Experimental: as §2

Solanum [6] = experiment: Pre-emergence test/greenhouse; settings: after three weeks
Experimental: as §2

Sorghum [7] = experiment: Pre-emergence test/greenhouse; settings: after three weeks
Experimental: as §2

weeds [8] = experiment: Pre-emergence test; settings: cf. Tables A-1 to A-5
Experimental: as §2

Lolium [9] = experiment: Post-emergence test/greenhouse; settings: 60 g ai./ha, after three weeks
Experimental: as §1

Wheat [10] = experiment: Post-emergence test/greenhouse; settings: for % damage, Wheat: after three weeks; for Wheat, % damage: rated after three weeks vs untreated control
Experimental: as §1

Alopecurus [11] = experiment: Post-emergence test/greenhouse; settings: 60 g ai./ha, after three weeks
Experimental: as §1

Xanthium = experiment: Post-emergence test/greenhouse; settings: for % damage, Xanthium: after three weeks; for Xanthium, % damage: rated after three weeks vs untreated control
Experimental: as §1

Solanum [12] = experiment: Post-emergence test/greenhouse; settings: for % damage, Solanum: after three weeks; for Solanum, % damage: rated after three weeks vs untreated control
Experimental: as §1

Sorghum [13] = experiment: Post-emergence test/greenhouse; settings: 60 g ai./ha; for Sorghum, % damage: rated after three weeks vs untreated control
Experimental: as §1

Stellaria = experiment: Post-emergence test/greenhouse; settings: 60 g ai./ha; for Stellaria, % damage: rated after three weeks vs untreated control
Experimental: as §1

Ipomoea = experiment: Post-emergence test/greenhouse; settings: 60 g ai./ha; for Ipomoea, % damage: rated after three weeks vs untreated control
Experimental: as §1

Soya beans = experiment: Pre-emergence test/greenhouse; settings: 125 g ai./ha, after three weeks
Experimental: as §2

Wheat [14] = experiment: Pre-emergence test/greenhouse; settings: 60 g ai./ha, after three weeks
Experimental: as §2

Veronica = experiment: Pre-emergence test/greenhouse; settings: 60 g ai./ha, after three weeks
Experimental: as §2

Amaranthus [15] = experiment: Post-emergence test/greenhouse
Experimental: as §1

Matricaria [16] = experiment: Post-emergence test/greenhouse; settings: 125 g ai./ha, after three weeks
Experimental: as §1

[17] = Table B-4, post-emergence, 60 g ai./ha

CCOc1nn(C(=O)NS(=O)(=O)c2c(OC)cccc2SC)c(=O)n1C [Example 20]
activity against weeds (weeds [1]): very strong activity
% damage, Amaranthus (Amaranthus [2]; 60 g ai./ha): 100%
% damage, Lolium (Lolium [3]; 60 g ai./ha): 95%
% damage, Maize (Maize; 60 g ai./ha): 0%
% damage, Alopecurus (Alopecurus [4]; 60 g ai./ha): 100%
% damage, Chenopodium (Chenopodium; 60 g ai./ha): 100%
% damage, Matricaria (Matricaria [5]; 60 g ai./ha): 100%
% damage, Solanum (Solanum [6]; 60 g ai./ha): 100%
% damage, Sorghum (Sorghum [7]; 60 g ai./ha): 100%
activity against weeds (weeds [8]): very strong activity
% damage, Lolium (Lolium [9]): 90%
% damage, Wheat (Wheat [10]; 60 g ai./ha): 20%
% damage, Alopecurus (Alopecurus [11]): 95%
% damage, Xanthium (Xanthium; post-emergence, 60 g ai./ha): 95%
% damage, Solanum (Solanum [12]; post-emergence, 60 g ai./ha): 100%
% damage, Sorghum (Sorghum [13]; post-emergence, after three weeks): 100%
% damage, Stellaria (Stellaria; after three weeks): 100%
% damage, Ipomoea (Ipomoea; after three weeks): 95%

CCOc1nn(C(=O)NS(=O)(=O)c2c(OC(F)(F)F)cccc2SC(C)C)c(=O)n1C [Example 25]
% damage, Amaranthus (Amaranthus [2]; 125 g ai./ha): 95%
% damage, Lolium (Lolium [3]; 125 g ai./ha): 70%
% damage, Maize (Maize; 125 g ai./ha): 0%
% damage, Soya beans (Soya beans): 20%
% damage, Alopecurus (Alopecurus [4]; 125 g ai./ha): 100%
% damage, Chenopodium (Chenopodium; 125 g ai./ha): 100%
% damage, Matricaria (Matricaria [5]; 125 g ai./ha): 95%
% damage, Solanum (Solanum [6]; 125 g ai./ha): 100%
% damage, Sorghum (Sorghum [7]; 125 g ai./ha): 80%
activity against weeds (weeds [8]): very strong activity

CCOc1nn(C(=O)NS(=O)(=O)c2c(OC(F)(F)F)cccc2SC)c(=O)n1C [Example 35]
% damage, Amaranthus (Amaranthus [2]; 60 g ai./ha): 100%
% damage, Lolium (Lolium [3]; 60 g ai./ha): 95%
% damage, Wheat (Wheat [14]): 10%
% damage, Alopecurus (Alopecurus [4]; 60 g ai./ha): 100%
% damage, Chenopodium (Chenopodium; 60 g ai./ha): 100%
% damage, Veronica (Veronica): 100%
% damage, Solanum (Solanum [6]; 60 g ai./ha): 95%
% damage, Sorghum (Sorghum [7]; 60 g ai./ha): 90%
activity against weeds (weeds [8]): very strong activity

CCSc1cccc(OC(F)(F)F)c1S(=O)(=O)NC(=O)n1nc(OC)n(C)c1=O [Example 40]
activity against weeds (weeds [1]): very strong activity
% damage, Amaranthus (Amaranthus [2]; 125 g ai./ha): 100%
% damage, Lolium (Lolium [3]; 125 g ai./ha): 95%
% damage, Maize (Maize; 125 g ai./ha): 5%
% damage, Soya beans (Soya beans): 20%
% damage, Alopecurus (Alopecurus [4]; 125 g ai./ha): 100%
% damage, Chenopodium (Chenopodium; 125 g ai./ha): 100%
% damage, Matricaria (Matricaria [5]; 125 g ai./ha): 100%
% damage, Solanum (Solanum [6]; 125 g ai./ha): 100%
% damage, Sorghum (Sorghum [7]; 125 g ai./ha): 100%
activity against weeds (weeds [8]): very strong activity
Wheat, % damage (Wheat [10]; 60 g ai./ha): 20%
Xanthium, % damage (Xanthium; post-emergence, 60 g ai./ha): 100%
Solanum, % damage (Solanum [12]; post-emergence, 60 g ai./ha): 95%
Sorghum, % damage (Sorghum [13]; post-emergence): 80%
Stellaria, % damage (Stellaria): 95%
Ipomoea, % damage (Ipomoea): 90%

CCSc1cccc(OC(F)(F)F)c1S(=O)(=O)NC(=O)n1nc(SC)n(C)c1=O [Example 41]
% damage, Amaranthus (Amaranthus [2]; 125 g ai./ha): 100%
% damage, Lolium (Lolium [3]; 125 g ai./ha): 80%
% damage, Maize (Maize; 125 g ai./ha): 10%
% damage, Soya beans (Soya beans): 20%
% damage, Alopecurus (Alopecurus [4]; 125 g ai./ha): 100%
% damage, Chenopodium (Chenopodium; 125 g ai./ha): 100%
% damage, Matricaria (Matricaria [5]; 125 g ai./ha): 100%
% damage, Solanum (Solanum [6]; 125 g ai./ha): 100%
% damage, Sorghum (Sorghum [7]; 125 g ai./ha): 90%
activity against weeds (weeds [8]): very strong activity

CCc1nn(C(=O)NS(=O)(=O)c2c(C)cccc2SC)c(=O)n1C [Example 49]
activity against weeds (weeds [1]): very strong activity
Amaranthus, % damage (Amaranthus [15]; Table B-4, post-emergence, 60 g ai./ha, rated after three weeks vs untreated control): 95%
Wheat, % damage (Wheat [10]; 60 g ai./ha): 20%
Xanthium, % damage (Xanthium; [17]): 95%
Xanthium, % damage (Xanthium; post-emergence, 60 g ai./ha): 95%
Solanum, % damage (Solanum [12]; [17]): 90%
Solanum, % damage (Solanum [12]; post-emergence, 60 g ai./ha): 90%
Sorghum, % damage (Sorghum [13]; Table B-4, post-emergence): 90%
Sorghum, % damage (Sorghum [13]; post-emergence): 90%
Stellaria, % damage (Stellaria): 70%
Ipomoea, % damage (Ipomoea): 90%

CSc1cccc(SC)c1S(=O)(=O)NC(=O)n1nc(SC)n(C)c1=O [Example 51]
activity against weeds (weeds [1]): very strong activity
% damage, Amaranthus (Amaranthus [15]; post-emergence, 125 g ai./ha, after three weeks): 95%
% damage, Wheat (Wheat [10]; 125 g ai./ha): 20%
% damage, Matricaria (Matricaria [16]): 95%
% damage, Xanthium (Xanthium; post-emergence, 125 g ai./ha): 95%
% damage, Solanum (Solanum [12]; post-emergence, 125 g ai./ha): 95%
